Laboratory results published in patent US8552058B2, “Application of L-n-butylphthalide in preventing and treating dementia” (CSPC Zhongqi Pharmaceutical Technology (Shijazhuang) Co., …, priority 2004, dated 2013).

How the values were obtained:
Format in all cases: in vivo, Wistar rats
[1] = system: choline acetyltransferase (ChAT); experiment: ChAT activity in cortex and hippocampus of hypoperfused (2-VO) rats; conditions: 10 mg/kg
[2] = system: neurons, substantia alba of optic tracts and GFAP-positive astrocytes in brain; experiment: Pathological and immunohistochemical detection (H-E, K-B, GFAP staining) in 2-VO rats
Description: Male Wistar rats, which were 10-weeks old and weighed approximately 280 grams, were used. 5 animals were placed in each cage, while the room temperature was kept at 23° C., with food and water freely accessible. Rats were anaesthetized with sodium pentobarbital (40 mg/kg), then bilateral common carotid arteries were exposed and the envelope of common carotid arteries and vagus nerve was carefully separated. For the hypoperfusion model group, bilateral common carotid arteries were ligated with 5-0 silk thread. For the sham surgery group, the same operation was conducted but with no ligation of bilateral common carotid arteries. A little of sterile crystalline sulfanilamide powder was applied on the wound after the surgery, then the skin was sutured. One month after the surgery, water maze and step-through test were performed. Rats were randomly assigned into 8 groups, with 10 animals per group. 1) sham surgery group: the same operation as that in hypoperfusion group was conducted but without ligation of bilateral common carotid arteries; 2) solvent control group: only vegetable oil was orally administered; 3) DL-NBP 10 mg/kg group; 4) DL-NBP 30 mg/kg group; 5) L-NBP 10 mg/kg group; 6) L-NBP 30 mg/kg group; 7) D-NBP 30 mg/kg group; Respective medicines or solvent were drenched since the 10th day after the surgery. Water maze experiments were performed on the 29-33rd days since the surgery, while step-through tests were performed on the 34-35th days since the surgery. Animals were killed for biochemical assay or pathological examination on the 36th day. In all the ethological tests, medicines were administered 40 minutes prior to respective test. 4-6 animals were chosen from each group randomly. After the ethological experiments, rats were anaesthetized with pentobarbital (100 mg/kg ip). Animal's skin and thorax was sequentially cut open and the heart was sufficiently exposed. Left tip of the heart was cut open, a perfusion needle was inserted along the aorta. After clamping with hemostat, physiological saline was infused. […]

[3] = system: Superoxide dismutase (SOD); experiment: SOD activity in cortex and hippocampus of hypoperfused (2-VO) rats; conditions: 10 mg/kg

For CCCC[C@@H]1OC(=O)c2ccccc21 [L-NBP, L-n-butylphthalide], which “improvement of cortical ChAT activity as compared with the model group” value ([1]; continuous administration for 16 days, 2-VO rats, p<0.05) is on record?
The value was 37.1%.

And the “ChAT activity, cortex” value ([1]; hypoperfused rats, n = 7-9, solvent control 65.6 ± 15.1, p<0.05 vs solvent control)?
The value was 104.3 ± 8.2 % of sham.

And the “ChAT activity, hippocampus” value ([1]; hypoperfused rats, n = 7-9, solvent control 102.6 ± 15.1)?
Its value is 110.0 ± 13.5 % of sham.

What about the “number of GFAP-positive astrocytes (immunohistochemistry)” value ([2]; 10 mg/kg) of the same compound?
Its value is “greatly reduced”.

And the “sparse substantia alba / vacuola in optic tracts (K-B staining)” value ([2]; 10 mg/kg extended administration)?
The value was “significant reduction of vacuola”.

What about the “neuronal damage in cortex and hippocampal CA1 induced by hypoperfusion (H-E staining)” value ([2]; 10 mg/kg, 5 weeks after ligation) of the same compound?
Its value is “could be significantly ameliorated”.

And the “SOD activity in hippocampus after treatment (in words)” value ([3]; 2-VO rats, p<0.05)?
The value was “returned close to the normal level”.

What about the “SOD activity, hippocampus” value ([3]; hypoperfused rats, n = 7-9, solvent control 81.16 ± 6.84, sham 57.90 ± 7.41, p<0.05 vs solvent control) of the same compound?
The value was 57.60 ± 3.86 NU/mg protein.

What about the “SOD activity, cortex” value ([3]; hypoperfused rats, n = 7-9, solvent control 114.42 ± 7.82, sham 100.07 ± 3.64) of the same compound?
The value was 98.84 ± 5.53 NU/mg protein.
